From ChEMBL document CHEMBL3784957, “Patterns of biofilm structure and formation kinetics among Acinetobacter baumannii clinical isolates with different antibiotic resistance profiles” (2016)
Values after ≈ are worked out from the molar mass of the structure shown.

What was measured:
Format in all cases: functional
Acinetobacter baumannii [1] = test: Antimicrobial activity against Acinetobacter baumannii isolate 3 by broth microdilution assay
Acinetobacter baumannii [2] = test: Antimicrobial activity against Acinetobacter baumannii isolate 9 by broth microdilution assay
Acinetobacter baumannii [3] = test: Antimicrobial activity against Acinetobacter baumannii isolate 12 by broth microdilution assay
Acinetobacter baumannii [4] = test: Antimicrobial activity against Acinetobacter baumannii isolate 15 by broth microdilution assay
Acinetobacter baumannii [5] = test: Antimicrobial activity against Acinetobacter baumannii isolate 20 by broth microdilution assay
Acinetobacter baumannii [6] = test: Antimicrobial activity against Acinetobacter baumannii isolate 26 by broth microdilution assay
Acinetobacter baumannii [7] = test: Antimicrobial activity against Acinetobacter baumannii isolate 30 by broth microdilution assay
Acinetobacter baumannii [8] = test: Antimicrobial activity against Acinetobacter baumannii isolate 35 by broth microdilution assay
Acinetobacter baumannii [9] = test: Antimicrobial activity against Acinetobacter baumannii isolate 38 by broth microdilution assay
Acinetobacter baumannii [10] = test: Antimicrobial activity against Acinetobacter baumannii isolate 45 by broth microdilution assay
Acinetobacter baumannii [11] = test: Antimicrobial activity against Acinetobacter baumannii isolate 52 by broth microdilution assay
Acinetobacter baumannii [12] = test: Antimicrobial activity against Acinetobacter baumannii isolate 59 by broth microdilution assay

Molecule | MIC (Acinetobacter baumannii [1]) | MIC (Acinetobacter baumannii [2]) | MIC (Acinetobacter baumannii [3]) | MIC (Acinetobacter baumannii [4]) | MIC (Acinetobacter baumannii [5]) | MIC (Acinetobacter baumannii [6]) | MIC (Acinetobacter baumannii [7]) | MIC (Acinetobacter baumannii [8]) | MIC (Acinetobacter baumannii [9]) | MIC (Acinetobacter baumannii [10]) | MIC (Acinetobacter baumannii [11]) | MIC (Acinetobacter baumannii [12])
NCC[C@H](O)C(=O)N[C@@H]1C[C@H](N)[C@@H](O[C@H]2O[C@H](CN)[C@@H](O)[C@H](O)[C@H]2O)[C@H](O)[C@H]1O[C@H]1O[C@H](CO)[C@@H](O)[C@H](N)[C@H]1O [AMIKACIN] | ≤ 2 µg/mL | > 32 µg/mL | 8 µg/mL (≈ 13.7 µM) | 16 µg/mL (≈ 27.3 µM) | > 32 µg/mL | ≤ 2 µg/mL | 4 µg/mL (≈ 6.83 µM) | ≤ 2 µg/mL | ≤ 2 µg/mL | ≤ 2 µg/mL | ≤ 2 µg/mL | ≤ 2 µg/mL
CO/N=C(\C(=O)N[C@@H]1C(=O)N2C(C(=O)[O-])=C(C[N+]3(C)CCCC3)CS[C@H]12)c1csc(N)n1 [CEFEPIME] | 16 µg/mL (≈ 33.3 µM) | 32 µg/mL (≈ 66.6 µM) | 32 µg/mL (≈ 66.6 µM) | > 32 µg/mL | > 32 µg/mL | 16 µg/mL (≈ 33.3 µM) | 16 µg/mL (≈ 33.3 µM) | 8 µg/mL (≈ 16.6 µM) | 2 µg/mL (≈ 4.16 µM) | 8 µg/mL (≈ 16.6 µM) | > 32 µg/mL | 2 µg/mL (≈ 4.16 µM)
CC(C)(O/N=C(\C(=O)N[C@@H]1C(=O)N2C(C(=O)[O-])=C(C[n+]3ccccc3)CS[C@H]12)c1csc(N)n1)C(=O)O [CEFTAZIDIME] | > 32 µg/mL | > 32 µg/mL | 16 µg/mL (≈ 29.3 µM) | > 32 µg/mL | > 32 µg/mL | > 32 µg/mL | 16 µg/mL (≈ 29.3 µM) | > 16 µg/mL | 4 µg/mL (≈ 7.32 µM) | > 32 µg/mL | > 32 µg/mL | 2 µg/mL (≈ 3.66 µM)
O=C(O)c1cn(C2CC2)c2cc(N3CCNCC3)c(F)cc2c1=O [CIPROFLOXACIN] | > 2 µg/mL | > 2 µg/mL | > 2 µg/mL | > 2 µg/mL | > 2 µg/mL | > 2 µg/mL | > 2 µg/mL | > 2 µg/mL | ≤ 0.25 µg/mL | > 2 µg/mL | > 2 µg/mL | ≤ 0.25 µg/mL
C[C@@H](O)[C@H]1C(=O)N2C(C(=O)O)=C(SCCNC=N)C[C@H]12 [IMIPENEM ANHYDROUS] | > 8 µg/mL | > 8 µg/mL | > 8 µg/mL | > 8 µg/mL | > 8 µg/mL | ≤ 1 µg/mL | 2 µg/mL (≈ 6.68 µM) | > 8 µg/mL | ≤ 1 µg/mL | > 8 µg/mL | > 8 µg/mL | ≤ 1 µg/mL
C[C@H]1COc2c(N3CCN(C)CC3)c(F)cc3c(=O)c(C(=O)O)cn1c23.C[C@H]1COc2c(N3CCN(C)CC3)c(F)cc3c(=O)c(C(=O)O)cn1c23.O [LEVOFLOXACIN] | > 4 µg/mL | > 4 µg/mL | > 4 µg/mL | > 4 µg/mL | > 4 µg/mL | > 4 µg/mL | > 4 µg/mL | > 4 µg/mL | ≤ 0.12 µg/mL | > 4 µg/mL | > 4 µg/mL | ≤ 0.12 µg/mL
C[C@@H](O)[C@H]1C(=O)N2C(C(=O)O)=C(S[C@@H]3CN[C@H](C(=O)N(C)C)C3)[C@H](C)[C@H]12 [MEROPENEM] | > 8 µg/mL | > 8 µg/mL | > 8 µg/mL | > 8 µg/mL | > 8 µg/mL | 1 µg/mL (≈ 2.61 µM) | 2 µg/mL (≈ 5.22 µM) | 8 µg/mL (≈ 20.9 µM) | ≤ 0.25 µg/mL | 8 µg/mL (≈ 20.9 µM) | > 8 µg/mL | 1 µg/mL (≈ 2.61 µM)
CN(C)c1ccc(O)c2c1C[C@H]1C[C@H]3[C@H](N(C)C)C(O)=C(C(N)=O)C(=O)[C@@]3(O)C(O)=C1C2=O [MINOCYCLINE] | 2 µg/mL (≈ 4.37 µM) | 8 µg/mL (≈ 17.5 µM) | ≤ 1 µg/mL | ≤ 1 µg/mL | 8 µg/mL (≈ 17.5 µM) | 2 µg/mL (≈ 4.37 µM) | ≤ 1 µg/mL | ≤ 1 µg/mL | ≤ 1 µg/mL | 2 µg/mL (≈ 4.37 µM) | ≤ 1 µg/mL | ≤ 1 µg/mL
CCN1CCN(C(=O)N[C@@H](C(=O)N[C@@H]2C(=O)N3[C@@H]2SC(C)(C)[C@@H]3C(=O)O)c2ccccc2)C(=O)C1=O [PIPERACILLIN] | > 64 µg/mL | > 64 µg/mL | > 64 µg/mL | > 64 µg/mL | > 64 µg/mL | > 64 µg/mL | > 64 µg/mL | > 64 µg/mL | ≤ 8 µg/mL | > 64 µg/mL | > 64 µg/mL | ≤ 8 µg/mL
CC1(C)S[C@@H]2[C@H](NC(=O)[C@H](C(=O)O)c3ccsc3)C(=O)N2[C@H]1C(=O)O [TICARCILLIN] | > 64 µg/mL | > 64 µg/mL | 64 µg/mL (≈ 166 µM) | > 64 µg/mL | > 64 µg/mL | 32 µg/mL (≈ 83.2 µM) | > 64 µg/mL | > 64 µg/mL | ≤ 8 µg/mL | > 64 µg/mL | > 64 µg/mL | ≤ 8 µg/mL
NC[C@H]1O[C@H](O[C@H]2[C@H](O)[C@@H](O[C@H]3O[C@H](CO)[C@@H](O)[C@H](N)[C@H]3O)[C@H](N)C[C@@H]2N)[C@H](N)C[C@@H]1O [TOBRAMYCIN] | ≤ 1 µg/mL | > 8 µg/mL | > 8 µg/mL | > 8 µg/mL | > 8 µg/mL | ≤ 1 µg/mL | 8 µg/mL (≈ 17.1 µM) | > 8 µg/mL | > 8 µg/mL | 8 µg/mL (≈ 17.1 µM) | ≤ 1 µg/mL | ≤ 1 µg/mL
COLISTIN | < 0.5 µg/mL | < 0.5 µg/mL | 16 µg/mL | < 0.5 µg/mL | < 0.5 µg/mL | < 0.5 µg/mL | < 0.5 µg/mL | < 0.5 µg/mL | < 0.5 µg/mL | 8 µg/mL | < 0.5 µg/mL | < 0.5 µg/mL
GENTAMICIN | < 1 µg/mL | > 8 µg/mL | > 8 µg/mL | > 8 µg/mL | > 8 µg/mL | < 1 µg/mL | > 8 µg/mL | > 8 µg/mL | < 1 µg/mL | > 8 µg/mL | 4 µg/mL | < 1 µg/mL
